Patent US9073974B2, “RGD-containing cyclic peptides” (The Regents of the University of California, priority 2009, dated 2015)
Entries after “also recorded” stand apart in the source; their conditions may differ. Bridge positions count the residues as written; N and C are the ends. Square brackets hold non-standard residues; d marks the D form. Peptide text beside a SMILES is read from it.

What was measured:
αvβ3 = molecular target: T1, αvβ3 (Homo sapiens, UniProt P05106+P06756); assay: Staining of αvβ3 transfected K562 cells with biotinylated peptide and streptavidin-PE (flow cytometry); format: binding; conditions: 1 μM biotinylated peptide, Streptavidin-PE
T1 construct: expressed in transfected cells; host or cells: K562 (gift of Dr. Yoshikazu Takada, UC Davis)
T1 sequence (P06756 31-889 limits assumed): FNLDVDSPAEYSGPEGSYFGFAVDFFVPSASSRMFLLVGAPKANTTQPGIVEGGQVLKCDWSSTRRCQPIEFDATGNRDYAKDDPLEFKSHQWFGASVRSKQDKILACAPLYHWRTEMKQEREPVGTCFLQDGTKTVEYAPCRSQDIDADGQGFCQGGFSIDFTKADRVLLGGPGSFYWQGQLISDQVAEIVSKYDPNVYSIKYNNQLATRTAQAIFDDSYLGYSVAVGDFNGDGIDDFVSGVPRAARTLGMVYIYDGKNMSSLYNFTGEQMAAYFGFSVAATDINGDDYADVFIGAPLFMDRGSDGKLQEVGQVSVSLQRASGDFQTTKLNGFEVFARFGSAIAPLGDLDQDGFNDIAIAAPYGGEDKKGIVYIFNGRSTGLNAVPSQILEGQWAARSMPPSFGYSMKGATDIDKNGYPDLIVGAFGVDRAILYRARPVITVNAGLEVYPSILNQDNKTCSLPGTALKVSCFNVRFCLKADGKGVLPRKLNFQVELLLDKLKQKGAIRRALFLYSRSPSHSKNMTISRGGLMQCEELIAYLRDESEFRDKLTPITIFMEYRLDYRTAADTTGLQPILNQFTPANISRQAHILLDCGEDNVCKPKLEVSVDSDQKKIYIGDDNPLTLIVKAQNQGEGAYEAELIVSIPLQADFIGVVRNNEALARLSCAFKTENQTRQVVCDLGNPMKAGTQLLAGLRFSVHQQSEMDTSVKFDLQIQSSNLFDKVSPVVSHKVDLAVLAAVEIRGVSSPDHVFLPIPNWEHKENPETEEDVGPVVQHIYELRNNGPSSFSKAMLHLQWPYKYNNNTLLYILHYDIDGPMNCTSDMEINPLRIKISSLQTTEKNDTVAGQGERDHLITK
T1 sequence (P06756 891-1048 partner limits assumed): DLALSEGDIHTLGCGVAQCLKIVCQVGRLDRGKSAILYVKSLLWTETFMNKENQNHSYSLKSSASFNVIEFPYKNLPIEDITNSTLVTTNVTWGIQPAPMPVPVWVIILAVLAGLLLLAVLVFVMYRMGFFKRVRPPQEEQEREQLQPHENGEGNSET
T1 sequence (P05106 27-788): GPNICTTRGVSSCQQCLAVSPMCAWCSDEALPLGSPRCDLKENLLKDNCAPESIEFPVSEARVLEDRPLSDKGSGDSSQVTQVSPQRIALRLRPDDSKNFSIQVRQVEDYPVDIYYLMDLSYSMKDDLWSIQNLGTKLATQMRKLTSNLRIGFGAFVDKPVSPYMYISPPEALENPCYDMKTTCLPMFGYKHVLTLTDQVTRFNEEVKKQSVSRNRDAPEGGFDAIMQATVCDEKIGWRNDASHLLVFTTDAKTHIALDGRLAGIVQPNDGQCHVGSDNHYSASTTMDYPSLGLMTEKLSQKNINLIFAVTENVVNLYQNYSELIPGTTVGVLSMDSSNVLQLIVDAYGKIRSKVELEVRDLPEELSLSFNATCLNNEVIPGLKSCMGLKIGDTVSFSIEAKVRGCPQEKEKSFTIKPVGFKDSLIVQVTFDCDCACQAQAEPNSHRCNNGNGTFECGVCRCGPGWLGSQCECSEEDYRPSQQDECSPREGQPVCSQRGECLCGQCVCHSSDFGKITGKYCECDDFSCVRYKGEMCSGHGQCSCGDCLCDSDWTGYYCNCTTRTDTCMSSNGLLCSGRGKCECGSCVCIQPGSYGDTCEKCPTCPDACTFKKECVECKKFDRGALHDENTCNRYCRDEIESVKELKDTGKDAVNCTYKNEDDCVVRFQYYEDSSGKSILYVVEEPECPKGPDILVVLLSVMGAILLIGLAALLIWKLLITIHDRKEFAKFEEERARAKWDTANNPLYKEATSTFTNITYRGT
Protocol: (§1) After one time wash, samples were tested. […] Then the specific binding equaled to substraction of nonspecific binding from total binding and Kds were analyzed.
(§2) To test the specificity of LXW7, LXW7 was prepared in biotinylated form and incubated with α1, α2, α3, α4, α6, α9, αIIbβ3 and αvβ3 transfected K562 and parent K562 cells (α5β1), followed by incubation with streptavidin-PE. […] The binding affinities of LXW7 and these cyclic RGD pentapeptides against αvβ3 integrin were compared based on their ability to inhibit FITC-Echistatin binding with αvβ3-K562.

αIIbβ3 = molecular target: T2, αIIbβ3 (Homo sapiens, UniProt P05106+P08514); assay: Staining of αIIbβ3 transfected K562 cells with biotinylated peptide and streptavidin-PE (flow cytometry); format: binding; conditions: 1 μM biotinylated peptide, Streptavidin-PE
T2 construct: expressed in transfected cells; host or cells: K562 (gift of Dr. Jennifer Cochran and Dr. Scott D. Blystone)
Protocol: as §1, §2

α5β1 = molecular target: T3, α5β1 (Homo sapiens, UniProt P05556+P08648); assay: Staining of parent K562 cells (α5β1) with biotinylated peptide and streptavidin-PE (flow cytometry); format: binding; conditions: 1 μM biotinylated peptide, Streptavidin-PE
T3 construct: host or cells: parent (non-transfected) K562
Protocol: as §1, §2

α1 = molecular target: T4, α1 (Homo sapiens, UniProt P56199); assay: Staining of α1 transfected K562 cells with biotinylated peptide and streptavidin-PE (flow cytometry); format: binding; conditions: 1 μM LXW7-Bio, Streptavidin-PE
T4 construct: expressed in transfected cells; host or cells: K562 (gift of Dr. Yoshikazu Takada)
Protocol: as §1, §2

α2 = molecular target: T5, α2 (Homo sapiens, UniProt P17301); assay: Staining of α2 transfected K562 cells with biotinylated peptide and streptavidin-PE (flow cytometry); format: binding; conditions: 1 μM LXW7-Bio, Streptavidin-PE
T5 construct: expressed in transfected cells; host or cells: K562 (gift of Dr. Yoshikazu Takada)
T5 sequence (P17301 30-1181): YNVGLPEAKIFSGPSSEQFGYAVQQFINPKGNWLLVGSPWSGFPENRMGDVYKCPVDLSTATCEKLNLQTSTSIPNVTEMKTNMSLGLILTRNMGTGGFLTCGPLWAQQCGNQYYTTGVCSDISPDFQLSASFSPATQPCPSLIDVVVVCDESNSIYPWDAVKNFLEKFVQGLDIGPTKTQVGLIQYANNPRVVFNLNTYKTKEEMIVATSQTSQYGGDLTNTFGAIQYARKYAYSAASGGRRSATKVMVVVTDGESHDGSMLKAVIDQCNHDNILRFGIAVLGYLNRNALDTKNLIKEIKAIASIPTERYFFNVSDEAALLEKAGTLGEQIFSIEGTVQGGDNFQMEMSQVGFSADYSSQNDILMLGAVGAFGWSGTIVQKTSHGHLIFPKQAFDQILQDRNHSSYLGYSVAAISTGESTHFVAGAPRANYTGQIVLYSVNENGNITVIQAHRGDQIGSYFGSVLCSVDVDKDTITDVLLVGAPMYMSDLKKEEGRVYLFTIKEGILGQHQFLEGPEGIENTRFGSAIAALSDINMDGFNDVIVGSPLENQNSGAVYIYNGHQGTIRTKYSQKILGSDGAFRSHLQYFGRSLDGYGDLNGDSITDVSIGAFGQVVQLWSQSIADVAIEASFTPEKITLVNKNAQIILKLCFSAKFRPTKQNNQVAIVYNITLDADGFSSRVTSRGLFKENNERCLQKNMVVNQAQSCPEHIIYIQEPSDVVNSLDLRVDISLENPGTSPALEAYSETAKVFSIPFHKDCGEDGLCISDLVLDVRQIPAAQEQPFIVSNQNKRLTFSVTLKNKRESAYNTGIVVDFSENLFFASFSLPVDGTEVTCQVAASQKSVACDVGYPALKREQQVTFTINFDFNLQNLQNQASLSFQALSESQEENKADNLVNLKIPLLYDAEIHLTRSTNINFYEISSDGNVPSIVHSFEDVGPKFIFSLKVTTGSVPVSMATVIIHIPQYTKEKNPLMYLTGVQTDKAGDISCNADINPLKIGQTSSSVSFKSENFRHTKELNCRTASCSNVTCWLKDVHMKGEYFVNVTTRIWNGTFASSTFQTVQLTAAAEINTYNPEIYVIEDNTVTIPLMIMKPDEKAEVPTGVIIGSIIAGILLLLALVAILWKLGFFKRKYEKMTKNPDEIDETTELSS
T5 sequence (P05556 21-798 partner): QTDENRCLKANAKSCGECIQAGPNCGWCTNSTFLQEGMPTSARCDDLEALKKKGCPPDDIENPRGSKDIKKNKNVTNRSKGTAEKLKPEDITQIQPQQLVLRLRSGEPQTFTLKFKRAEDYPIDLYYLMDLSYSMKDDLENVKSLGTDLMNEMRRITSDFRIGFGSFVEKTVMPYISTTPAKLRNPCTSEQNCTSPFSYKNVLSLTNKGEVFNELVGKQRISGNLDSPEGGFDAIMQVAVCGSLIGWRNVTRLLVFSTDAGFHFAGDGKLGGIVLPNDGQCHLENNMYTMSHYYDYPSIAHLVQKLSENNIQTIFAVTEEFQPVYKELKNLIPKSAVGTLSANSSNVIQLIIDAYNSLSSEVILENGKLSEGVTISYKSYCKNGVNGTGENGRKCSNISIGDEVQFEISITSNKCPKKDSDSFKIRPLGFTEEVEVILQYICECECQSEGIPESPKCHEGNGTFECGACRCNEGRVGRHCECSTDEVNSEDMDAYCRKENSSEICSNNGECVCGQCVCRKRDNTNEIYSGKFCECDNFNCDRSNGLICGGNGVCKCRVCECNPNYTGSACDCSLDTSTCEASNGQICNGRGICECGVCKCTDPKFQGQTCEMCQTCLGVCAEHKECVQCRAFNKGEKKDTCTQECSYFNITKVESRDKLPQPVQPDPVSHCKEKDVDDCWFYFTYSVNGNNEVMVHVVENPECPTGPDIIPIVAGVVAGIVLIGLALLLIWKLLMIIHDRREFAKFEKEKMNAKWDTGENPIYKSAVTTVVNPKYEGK
Protocol: as §1, §2

α3 = molecular target: T6, α3 (Homo sapiens, UniProt P05556+P26006); assay: Staining of α3 transfected K562 cells with biotinylated peptide and streptavidin-PE (flow cytometry); format: binding; conditions: 1 μM LXW7-Bio, Streptavidin-PE
T6 construct: expressed in transfected cells; host or cells: K562 (gift of Dr. Yoshikazu Takada)
Protocol: as §1, §2

α4 = molecular target: T7, α4 (Homo sapiens, UniProt P05556+P13612); assay: Staining of α4 transfected K562 cells with biotinylated peptide and streptavidin-PE (flow cytometry); format: binding; conditions: 1 μM LXW7-Bio, Streptavidin-PE
T7 construct: expressed in transfected cells; host or cells: K562 (gift of Dr. Yoshikazu Takada)
Protocol: as §1, §2

α6 = molecular target: T8, α6 (Homo sapiens, UniProt P05556+P23229); assay: Staining of α6 transfected K562 cells with biotinylated peptide and streptavidin-PE (flow cytometry); format: binding; conditions: 1 μM LXW7-Bio, Streptavidin-PE
T8 construct: expressed in transfected cells; host or cells: K562 (gift of Dr. Yoshikazu Takada)
Protocol: as §1, §2

α9 = molecular target: T9, α9 (Homo sapiens, UniProt P05556+Q13797); assay: Staining of α9 transfected K562 cells with biotinylated peptide and streptavidin-PE (flow cytometry); format: binding; conditions: 1 μM LXW7-Bio, Streptavidin-PE
T9 construct: expressed in transfected cells; host or cells: K562 (gift of Dr. Yoshikazu Takada)
T9 sequence (Q13797 30-1035): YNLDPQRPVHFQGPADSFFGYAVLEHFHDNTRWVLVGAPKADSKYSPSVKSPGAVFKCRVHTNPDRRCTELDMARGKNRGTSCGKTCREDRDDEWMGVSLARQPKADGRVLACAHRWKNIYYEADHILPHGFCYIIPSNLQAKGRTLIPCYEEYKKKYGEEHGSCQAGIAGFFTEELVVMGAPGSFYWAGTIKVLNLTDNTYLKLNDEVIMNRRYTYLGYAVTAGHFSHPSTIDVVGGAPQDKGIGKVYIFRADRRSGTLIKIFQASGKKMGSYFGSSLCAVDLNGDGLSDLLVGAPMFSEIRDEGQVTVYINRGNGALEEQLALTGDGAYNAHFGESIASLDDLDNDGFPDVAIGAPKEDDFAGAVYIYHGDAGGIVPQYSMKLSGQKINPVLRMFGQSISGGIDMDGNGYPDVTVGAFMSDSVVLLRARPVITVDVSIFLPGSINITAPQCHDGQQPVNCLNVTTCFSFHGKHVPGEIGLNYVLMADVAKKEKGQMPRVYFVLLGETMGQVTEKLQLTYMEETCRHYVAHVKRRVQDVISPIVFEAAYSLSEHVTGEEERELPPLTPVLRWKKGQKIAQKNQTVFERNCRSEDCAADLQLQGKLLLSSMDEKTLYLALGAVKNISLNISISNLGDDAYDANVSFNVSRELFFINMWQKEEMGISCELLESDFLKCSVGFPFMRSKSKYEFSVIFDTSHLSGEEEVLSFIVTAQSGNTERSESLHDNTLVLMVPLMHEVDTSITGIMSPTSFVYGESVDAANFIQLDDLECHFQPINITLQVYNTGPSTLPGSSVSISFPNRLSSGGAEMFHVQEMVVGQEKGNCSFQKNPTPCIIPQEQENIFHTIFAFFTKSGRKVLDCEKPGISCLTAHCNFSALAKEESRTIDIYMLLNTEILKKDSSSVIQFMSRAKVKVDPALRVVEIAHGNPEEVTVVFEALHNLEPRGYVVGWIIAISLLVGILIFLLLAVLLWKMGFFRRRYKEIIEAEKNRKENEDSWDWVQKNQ
T9 sequence (P05556 21-798): as the sequence (P05556 21-798 partner) above
Protocol: as §1, §2

U-87 MG xenograft = assay: In vivo and ex vivo near infra red fluorescent imaging, U-87 MG xenograft; set-up: species or system nude mice; conditions: complex of Streptavidin-Cy5.5 with biotinylated peptide, 6 hrs after tail vein injection
Protocol: Animal studies were performed according to a protocol approved by IACUC of the University of California, Davis.
Animals were placed on a sheet of transparency in different position. […] Images were captured with a CCD camera set at F stop=0, FOV=150, and FP=0. Six hours post injection of imaging complex, the mice were conducted in vivo imaging, then were sacrificed and organs were excised for ex vivo imaging.

αvβ3 integrin [1] = molecular target: T10, αvβ3 integrin (Homo sapiens, UniProt P05106+P06756); assay: Equilibrium binding and antibody blocking of LXW7-Bio on U-87 MG glioblastoma cells (flow cytometry); set-up: host or cells: U-87MG (A5)
T10 sequence (P06756 31-889 limits assumed): as the sequence (P06756 31-889 limits assumed) above
T10 sequence (P06756 891-1048 partner limits assumed): as the sequence (P06756 891-1048 partner limits assumed) above
T10 sequence (P05106 27-788): as the sequence (P05106 27-788) above
Protocol: as §1
(§3) The samples were analyzed with Coulter XL-MCL flow cytometry. The histogram and mean fluorescence intensity (MFI) were determined. The apparent Kd, IC50 were calculated using Graph Prism software (≦www.graphpad.com≧).

αvβ3 integrin [2] = molecular target: T10, αvβ3 integrin; assay: Equilibrium binding and antibody blocking of LXW7-Bio on A375M melanoma cells (flow cytometry); set-up: host or cells: A375M (A4); U-87MG (A5)
Protocol: as §1, §3

αvβ3 integrin [3] = molecular target: T10, αvβ3 integrin; assay: Inhibition of FITC-Echistatin binding to αvβ3-K562 cells (flow cytometry); set-up: expressed in transfected cells; host or cells: K562 (gift of Dr. Yoshikazu Takada, UC Davis)
Protocol: as §3

αvβ3 integrin [4] = molecular target: T10, αvβ3 integrin; assay: Inhibition of biotinylated LXW7 binding to αvβ3-K562 cells (flow cytometry); set-up: expressed in transfected cells; host or cells: K562 (gift of Dr. Yoshikazu Takada, UC Davis); conditions: LXW9-92: inhibiting the binding of biotinylated LXW7 against αvβ3-K562 cells, LXW7 as internal reference
Protocol: The apparent IC50 were calculated using Graph Prism software (≦www.graphpad.com≧).
as §3

αvβ3 integrin [5] = molecular target: T10, αvβ3 integrin; assay: Equilibrium binding of LXW7-Bio to αvβ3-K562 cells (flow cytometry); set-up: expressed in transfected cells; host or cells: K562 (gift of Dr. Yoshikazu Takada, UC Davis)
Protocol: as §1, §3

[6] = 10 μg LM609 premixed with 1 μM LXW7-Bio

SMILES: CC(C)[C@H]1NC(=O)[C@@H](CC(=O)O)NC(=O)[C@H](CC(=O)O)NC(=O)CNC(=O)[C@H](CCCNC(=N)N)NC(=O)CNC(=O)[C@H](N)CSSC[C@H](C(N)=O)NC1=O [LXW7, cGRGDdvc] (H-[dC]GRGD[dD][dV][dC]-NH2; disulfide 1-8)
- binding with αvβ3 (αvβ3): strong positive binding; also recorded: strongly bound
- binding with αIIbβ3 (αIIbβ3): weak cross-reaction; also recorded: weakly
- binding with α5β1 (α5) (α5β1): no binding; also recorded: not at all
- binding with α1 (α1): no binding; also recorded: not at all
- binding with α2 (α2): no binding; also recorded: not at all
- binding with α3 (α3): no binding; also recorded: not at all
- binding with α4 (α4): no binding
- binding with α6 (α6): no binding; also recorded: not at all
- binding with α9 (α9): no binding; also recorded: not at all
- liver uptake, ex vivo imaging (U-87 MG xenograft): low
- tumor uptake, ex vivo imaging (U-87 MG xenograft): high
- binding to U-87 MG cells in presence of anti-αvβ3 antibody (LM609) (αvβ3 integrin [1]; [6]): markedly blocked
- Bmax (A.U) (αvβ3 integrin [1]; U-87 MG): 86 ± 4 A.U
- Kd (αvβ3 integrin [1]; U-87 MG): 72 ± 15 nM
- binding to A375M cells in presence of anti-αvβ3 antibody (LM609) (αvβ3 integrin [2]; [6]): markedly blocked
- Bmax (A.U) (αvβ3 integrin [2]; A375M): 71 ± 4 A.U
- Kd (αvβ3 integrin [2]; A375M): 89 ± 8 nM
- binding strength to αvβ3 integrin, biotinylated versus non-biotinylated, in words (αvβ3 integrin [3]): near identical binding strength
- IC50 (αvβ3 integrin [3]; LXW1-8: inhibition of binding of FITC-Echistatin against αvβ3-K562, class symbols, read-out: IC50): < 1000 nM
- IC50 (αvβ3 integrin [4]): 590 nM
- Bmax (A.U) (αvβ3 integrin [5]): 1394 ± 57 A.U
- Kd (αvβ3 integrin [5]): 76 ± 10 nM
